Results as given in PubChem BioAssay (NCI).
Values joined by “and” are separate entries in the source; they are usually repeats but may differ in a detail not shown here. Equal values may be shown once.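 Results reflect a 48-hour exposure of cells in 96-well plates to compound at five concentrations. GI50: concentration for 50% inhibition of growth. TGI: total growth inhibition.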

How the values were obtained:
Assay in all cases: inhibition of tumour cell growth, NCI panel, 48 h
[1] = test system: UACC-257 melanoma
[2] = test system: CAKI-1 renal
[3] = test system: HOP-62 NSCLC
[4] = test system: SF-268 CNS
[5] = test system: KM12 colon
[6] = test system: RPMI-8226 leukemia
[7] = test system: A549 NSCLC
[8] = test system: U251 CNS
[9] = test system: CCRF-CEM leukemia
[10] = test system: SNB-19 CNS

COc1cc2cnc3c4ccccc4ccc3c2cc1OC gave a TGI [1] greater than 100 µM, a TGI [2] greater than 100 µM and a TGI [3] greater than 100 µM. It also gave a TGI [4] greater than 100 µM, a TGI [5] greater than 100 µM and a TGI [6] greater than 100 µM. For the same compound, the TGI [7] was greater than 100 µM, the TGI [8] was greater than 100 µM and the TGI [9] was greater than 100 µM. For the same compound, the TGI [10] was greater than 100 µM.
Work on CCN(CC)CC(=O)N1CCc2c([nH]c3ccccc23)C1c1cccnc1 (stereo not drawn) yielded a TGI [1] greater than 100 µM, a TGI [2] greater than 100 µM and a TGI [3] greater than 100 µM. It also gave a TGI [4] greater than 100 µM, a TGI [5] greater than 100 µM and a TGI [6] greater than 100 µM. The TGI [7] was greater than 100 µM, the TGI [8] was greater than 100 µM and the TGI [9] was greater than 100 µM. It also gave a TGI [10] greater than 100 µM.
In the case of COc1cccc(/C=C2\CCC(C)(CN(C)C)C2=O)c1 (stereo not drawn), the TGI [1] was greater than 100 µM, the TGI [2] was greater than 100 µM and the TGI [3] was greater than 100 µM. It also gave a TGI [4] greater than 100 µM, a TGI [5] greater than 100 µM and a TGI [6] of 68.1 µM. The TGI [7] was greater than 100 µM, the TGI [8] was greater than 100 µM and the TGI [10] was greater than 100 µM.
Cn1c(/C(C#N)=C/c2ccc3ccccc3c2)cc2ccccc21 was tested, and the GI50 [1] was greater than 100000 nM, the TGI [1] was greater than 100 µM and the GI50 [2] was 60.5 nM. It also gave a TGI [2] greater than 100 µM, a GI50 [3] of 357 nM and a TGI [3] greater than 100 µM. The GI50 [5] was 114 nM, the TGI [5] was greater than 100 µM and the GI50 [6] was 311 nM. The TGI [6] was greater than 100 µM, the GI50 [7] was 0.247 µM and the TGI [7] was greater than 100 µM. The GI50 [8] was 249 nM, the TGI [8] was greater than 100 µM and the GI50 [9] was 267 nM. It also gave a TGI [9] greater than 100 µM, a GI50 [10] of 256 nM and a TGI [10] greater than 100 µM.
With C=CCO/N=C/c1cc(NC(=S)c2ccoc2C)ccc1Cl the TGI [1] was 34 µM, the TGI [2] was 23.6 µM and the TGI [3] was 29.5 µM. It also gave a TGI [4] of 36 µM, a TGI [5] of 25.5 µM and a TGI [6] of 12.1 µM. For the same compound, the TGI [7] was greater than 100 µM, the TGI [8] was 60.6 µM and the TGI [9] was greater than 100 µM. For the same compound, the TGI [10] was 21.2 µM.
Compound CC(=O)N[C@H](C(=O)N[C@@H](CCCNC(=N)N)C(=O)N[C@@H](CCCCN)C(=O)N[C@@H](CCCNC(=N)N)C(=O)N[C@]1(C)CCCCCC/C=C\CCC[C@@](C)(C(=O)N[C@@H](CCCNC(=N)N)C(=O)N[C@@H](CCC(=O)O)C(=O)N[C@@H](CC(C)C)C(=O)N[C@H](C(=O)N[C@@H](CCC(=O)O)C(N)=O)C(C)C)NC(=O)[C@H](CCC(N)=O)NC(=O)[C@H](CC(C)C)NC(=O)[C@H](CC(C)C)NC(=O)[C@H](CCCNC(=N)N)NC(=O)[C@H](CCCNC(=N)N)NC(=O)[C@H](CC(C)C)NC1=O)C(C)C has a GI50 [2] of 2060 nM, a TGI [2] of 11.7 µM and a GI50 [3] of 2350 nM. The TGI [3] was 22.5 µM, the GI50 [4] was 1470 nM and the TGI [4] was 4.58 µM. For the same compound, the GI50 [5] was 1300 nM, the TGI [5] was 3.77 µM and the GI50 [6] was 6480 nM. For the same compound, the TGI [6] was 20.9 µM, the GI50 [7] was 3.4 µM and the TGI [7] was 27.6 µM. It also gave a GI50 [8] of 3790 nM, a TGI [8] of 36.6 µM and a GI50 [9] of 7280 nM. For the same compound, the TGI [9] was 26.7 µM, the GI50 [10] was 10300 nM and the TGI [10] was greater than 50 µM.
With CC1(C)OC2COC3(CNO)OC(C)(C)OC3C2O1 (stereo not drawn) the TGI [1] was greater than 100 µM, the TGI [2] was greater than 100 µM and the TGI [3] was greater than 100 µM. The TGI [4] was greater than 100 µM, the TGI [5] was greater than 100 µM and the TGI [7] was greater than 100 µM. It also gave a TGI [8] greater than 100 µM, a TGI [9] greater than 100 µM and a TGI [10] greater than 100 µM.
With C[n+]1c2ccccc2cc2c(CNC(CCCN=C(N)N)C(=O)O)cccc21 (stereo not drawn) the GI50 [1] was 1980 nM, the TGI [1] was 3.9 µM and the TGI [2] was 2.07 µM. For the same compound, the GI50 [3] was 9220 nM, the TGI [3] was 6.88 µM and 22 µM and the GI50 [4] was 394 nM. The TGI [4] was 0.846 µM and 1.47 µM, the TGI [5] was 1.72 µM and 1.57 µM and the GI50 [6] was 327 nM. The TGI [6] was 0.679 µM and 1.56 µM, the GI50 [7] was 4.11 µM and the TGI [7] was 14.6 µM. For the same compound, the GI50 [8] was 2120 nM, the TGI [8] was 4.28 µM and 6.85 µM and the TGI [9] was 0.555 µM.
CC1(C)CC[C@H](C2=CC(=O)c3c(O)ccc(O)c3C2=O)O1 was tested, and the GI50 [1] was 1990 nM and 1380 nM and 391 nM, the TGI [1] was 4.77 µM and 2.67 µM and 1.08 µM and the GI50 [2] was 1110 nM and 1380 nM and 480 nM. For the same compound, the TGI [2] was 2.44 µM and 2.72 µM and 1.17 µM, the TGI [3] was 9.96 µM and 6.57 µM and the GI50 [4] was 3540 nM and 2190 nM and 1010 nM. The TGI [4] was 10.3 µM and 6.27 µM and 6.67 µM, the GI50 [5] was 6250 nM and 1690 nM and 1830 nM and the TGI [5] was 14.2 µM and 3.2 µM and 3.45 µM. The GI50 [6] was 1420 nM and 278 nM and 398 nM, the TGI [6] was 5.13 µM and 0.992 µM and 2.2 µM and the GI50 [7] was 9.2 µM and 3.48 µM and 3.31 µM. For the same compound, the TGI [7] was 30 µM and 10 µM, the GI50 [8] was 3710 nM and 2510 nM and 1500 nM and the TGI [8] was 6.5 µM and 7.21 µM and 3.19 µM. For the same compound, the GI50 [9] was 666 nM and 114 nM.
COCCOCCOCc1n(Cc2ccc3ccccc3n2)c2ccccc2[n+]1Cc1ccc2ccccc2c1 showed a GI50 [1] of 293 nM, a TGI [1] of 0.877 µM and a GI50 [3] of 468 nM. For the same compound, the TGI [3] was 2.52 µM, the GI50 [4] was 464 nM and the TGI [4] was 1.85 µM. It also gave a GI50 [5] of 388 nM, a TGI [5] of 1.63 µM and a GI50 [6] of 185 nM. It also gave a TGI [6] of 1.33 µM, a GI50 [7] of 0.748 µM and a TGI [7] of 10.6 µM. It also gave a GI50 [8] of 328 nM, a TGI [8] of 1.26 µM and a GI50 [9] of 532 nM. The TGI [9] was 2.45 µM, the GI50 [10] was 441 nM and the TGI [10] was 1.62 µM.
CC/C(=N\NS(=O)(=O)c1ccccc1)c1ccccc1 was tested, and the TGI [1] was greater than 100 µM, the TGI [2] was greater than 100 µM and the TGI [3] was greater than 100 µM. It also gave a TGI [4] greater than 100 µM, a TGI [5] greater than 100 µM and a TGI [6] greater than 100 µM. The TGI [7] was greater than 100 µM, the TGI [8] was greater than 100 µM and the TGI [9] was greater than 100 µM.
Work on Cl[Si]1(Cl)Oc2ccccc2O[Si](Cl)(Cl)Oc2ccccc2O1 yielded a TGI [2] of 97.5 µM, a TGI [3] greater than 100 µM and a TGI [4] greater than 100 µM. The TGI [5] was greater than 100 µM, the TGI [6] was greater than 100 µM and the TGI [7] was greater than 100 µM. It also gave a TGI [8] greater than 100 µM, a TGI [9] of 10.5 µM and a TGI [10] greater than 100 µM.
For c1ccc(Cn2cnc3ccc(-c4nc(-c5ccc6c(c5)ncn6C5CCCCC5)cn5ccnc45)cc32)cc1, the GI50 [2] was 2450 nM, the TGI [2] was greater than 100 µM and the GI50 [4] was 2480 nM. It also gave a TGI [4] greater than 100 µM, a GI50 [5] of 2080 nM and a TGI [5] of 4.93 µM. The GI50 [6] was 1150 nM, the TGI [6] was 4.5 µM and the GI50 [7] was 2.33 µM. For the same compound, the TGI [7] was 4.97 µM, the GI50 [9] was 2180 nM and the TGI [9] was greater than 100 µM. It also gave a GI50 [10] of 4540 nM and a TGI [10] greater than 100 µM.
In the case of CSc1c(C)c(C)nn1-c1ccccc1, the TGI [1] was greater than 100 µM, the TGI [2] was greater than 100 µM and the TGI [4] was greater than 100 µM. It also gave a TGI [5] greater than 100 µM, a TGI [6] greater than 100 µM and a TGI [7] greater than 100 µM. For the same compound, the TGI [8] was greater than 100 µM, the TGI [9] was greater than 100 µM and the TGI [10] was greater than 100 µM.
Cc1cn(C2OC(C)(CO)C(O)C2O)c(=O)[nH]c1=O (stereo not drawn) showed a TGI [2] greater than 100 µM, a TGI [3] greater than 100 µM and a TGI [4] greater than 100 µM. The TGI [5] was greater than 100 µM, the TGI [6] was greater than 100 µM and the TGI [7] was greater than 100 µM. For the same compound, the TGI [8] was greater than 100 µM, the TGI [9] was greater than 100 µM and the TGI [10] was greater than 100 µM.
With O=C/C(=C(/Cl)c1ccc(O)cc1)c1ccccc1 the TGI [1] was greater than 56.6 µM, the TGI [2] was greater than 56.8 µM and the TGI [4] was 77.8 µM. For the same compound, the TGI [5] was greater than 100 µM, the TGI [6] was greater than 63 µM and the TGI [7] was greater than 84.6 µM. For the same compound, the TGI [8] was greater than 56.5 µM, the TGI [9] was greater than 100 µM and the TGI [10] was greater than 100 µM.
O=C(c1ccc2ccccc2c1)c1c(C(F)(F)F)n([O-])c2ccc(Cl)cc2[n+]1=O showed a GI50 [1] of 1680 nM, a TGI [1] of 3.13 µM and a GI50 [2] of 1630 nM. It also gave a TGI [2] of 3.01 µM, a GI50 [3] of 1860 nM and a TGI [3] of 3.46 µM. It also gave a GI50 [4] of 1040 nM, a TGI [4] of 2.33 µM and a GI50 [5] of 1080 nM. For the same compound, the TGI [5] was 2.39 µM, the GI50 [6] was 373 nM and the TGI [6] was 1.66 µM. It also gave a GI50 [7] of 1.71 µM, a TGI [7] of 3.21 µM and a GI50 [8] of 1670 nM. It also gave a TGI [8] of 3.03 µM, a GI50 [10] of 1690 nM and a TGI [10] of 3.07 µM.
C=CCC1[C@@H](C(C)(C)C(C(C)=O)C(=O)C(=O)OC)OC(C(C)(C)C)N1C(=O)OC (stereo partly drawn) showed a TGI [1] greater than 100 µM, a TGI [3] greater than 100 µM and a TGI [4] greater than 100 µM. The TGI [5] was greater than 100 µM, the TGI [7] was greater than 100 µM and the TGI [8] was greater than 100 µM. The TGI [9] was greater than 100 µM and the TGI [10] was greater than 100 µM.
